Calls of active or inactive are those of the source.
Columns and labels:
Format in all cases: functional
[1] = molecular target: Serine/threonine-protein kinase PAK 1 (Homo sapiens, UniProt Q13153)
[2] = molecular target: Receptor tyrosine-protein kinase erbB-4 (Homo sapiens, UniProt Q15303);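 also: ERBB4 member of a kinome-wide kinase profiling panel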
[3] = molecular target: T1, Tyrosine-protein kinase JAK3 (Homo sapiens, UniProt P52333)
T1 sequence (P52333 whole entry): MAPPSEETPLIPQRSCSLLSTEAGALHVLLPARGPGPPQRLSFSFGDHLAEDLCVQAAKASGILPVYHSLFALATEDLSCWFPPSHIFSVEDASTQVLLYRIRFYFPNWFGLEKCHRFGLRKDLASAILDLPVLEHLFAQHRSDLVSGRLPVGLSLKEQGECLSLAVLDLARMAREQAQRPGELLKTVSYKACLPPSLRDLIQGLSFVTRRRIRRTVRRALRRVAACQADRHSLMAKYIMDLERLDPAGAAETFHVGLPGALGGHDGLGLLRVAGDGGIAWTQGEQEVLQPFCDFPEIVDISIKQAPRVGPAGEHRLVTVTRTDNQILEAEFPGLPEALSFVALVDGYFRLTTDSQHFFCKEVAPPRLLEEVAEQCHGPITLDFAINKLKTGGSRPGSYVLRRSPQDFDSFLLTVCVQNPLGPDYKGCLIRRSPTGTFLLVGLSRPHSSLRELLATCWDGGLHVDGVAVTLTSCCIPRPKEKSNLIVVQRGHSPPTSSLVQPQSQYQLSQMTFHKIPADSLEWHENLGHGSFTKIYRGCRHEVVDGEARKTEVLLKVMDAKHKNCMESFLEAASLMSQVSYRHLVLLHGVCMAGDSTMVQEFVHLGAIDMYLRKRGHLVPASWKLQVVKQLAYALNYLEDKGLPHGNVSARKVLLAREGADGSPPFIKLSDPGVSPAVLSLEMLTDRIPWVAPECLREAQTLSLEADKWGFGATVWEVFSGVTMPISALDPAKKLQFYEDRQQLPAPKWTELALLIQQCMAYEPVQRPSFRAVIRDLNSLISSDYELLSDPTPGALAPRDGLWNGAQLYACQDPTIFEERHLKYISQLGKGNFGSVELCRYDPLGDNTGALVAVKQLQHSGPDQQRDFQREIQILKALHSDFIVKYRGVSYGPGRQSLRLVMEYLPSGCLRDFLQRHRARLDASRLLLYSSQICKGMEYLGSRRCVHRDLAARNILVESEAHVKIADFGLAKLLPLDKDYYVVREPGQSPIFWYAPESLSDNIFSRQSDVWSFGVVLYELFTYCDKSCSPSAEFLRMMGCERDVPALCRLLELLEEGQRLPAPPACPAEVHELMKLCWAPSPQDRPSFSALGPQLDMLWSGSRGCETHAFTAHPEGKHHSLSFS

[4] = molecular target: Dual specificity tyrosine-phosphorylation-regulated kinase 4 (Homo sapiens, UniProt Q9NR20)
[5] = molecular target: Homeodomain-interacting protein kinase 2 (Homo sapiens, UniProt Q9H2X6);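 also: measured within a kinome-wide kinase profiling panel, HIPK2 being one panel member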
Sequence of Homeodomain-interacting protein kinase 2 (Q9H2X6 whole entry): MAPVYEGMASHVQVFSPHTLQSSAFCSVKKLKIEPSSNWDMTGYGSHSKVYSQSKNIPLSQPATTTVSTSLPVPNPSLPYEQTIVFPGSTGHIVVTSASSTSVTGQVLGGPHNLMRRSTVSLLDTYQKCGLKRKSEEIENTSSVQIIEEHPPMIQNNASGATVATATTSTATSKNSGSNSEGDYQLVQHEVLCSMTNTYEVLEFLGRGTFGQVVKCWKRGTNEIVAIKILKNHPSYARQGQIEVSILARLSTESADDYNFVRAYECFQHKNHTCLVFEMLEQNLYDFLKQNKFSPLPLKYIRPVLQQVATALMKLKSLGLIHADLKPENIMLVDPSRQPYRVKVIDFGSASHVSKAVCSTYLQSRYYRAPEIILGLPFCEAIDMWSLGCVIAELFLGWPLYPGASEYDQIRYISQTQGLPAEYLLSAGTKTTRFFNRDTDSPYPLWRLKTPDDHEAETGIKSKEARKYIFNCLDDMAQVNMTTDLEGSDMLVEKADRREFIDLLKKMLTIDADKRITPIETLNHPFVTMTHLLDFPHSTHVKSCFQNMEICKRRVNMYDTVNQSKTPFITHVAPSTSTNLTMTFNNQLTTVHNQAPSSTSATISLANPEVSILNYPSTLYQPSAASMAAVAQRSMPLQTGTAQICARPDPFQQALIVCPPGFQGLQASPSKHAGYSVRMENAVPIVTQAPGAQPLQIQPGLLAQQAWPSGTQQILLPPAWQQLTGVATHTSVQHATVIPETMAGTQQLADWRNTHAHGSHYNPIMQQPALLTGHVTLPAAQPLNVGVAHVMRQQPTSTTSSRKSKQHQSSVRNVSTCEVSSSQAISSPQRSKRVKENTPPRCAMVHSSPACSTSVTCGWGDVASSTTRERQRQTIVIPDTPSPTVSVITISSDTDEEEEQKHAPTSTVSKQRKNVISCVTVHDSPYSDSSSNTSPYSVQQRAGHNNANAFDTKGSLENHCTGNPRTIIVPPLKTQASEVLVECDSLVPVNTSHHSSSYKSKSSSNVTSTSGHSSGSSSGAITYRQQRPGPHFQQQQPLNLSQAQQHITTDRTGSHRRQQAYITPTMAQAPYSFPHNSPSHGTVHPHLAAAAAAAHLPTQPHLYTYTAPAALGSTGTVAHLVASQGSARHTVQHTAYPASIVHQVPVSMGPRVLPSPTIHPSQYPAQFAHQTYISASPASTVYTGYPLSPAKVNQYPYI

[6] = molecular target: Proto-oncogene tyrosine-protein kinase ROS (Homo sapiens, UniProt P08922);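 also: ROS1 tested as one member of a kinome-wide kinase panel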
[7] = molecular target: Megakaryocyte-associated tyrosine-protein kinase (Homo sapiens, UniProt P42679);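 also: affinity measured as one member of a kinase panel (Navigating the Kinome) against MATK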
Sequence of Megakaryocyte-associated tyrosine-protein kinase (P42679 whole entry): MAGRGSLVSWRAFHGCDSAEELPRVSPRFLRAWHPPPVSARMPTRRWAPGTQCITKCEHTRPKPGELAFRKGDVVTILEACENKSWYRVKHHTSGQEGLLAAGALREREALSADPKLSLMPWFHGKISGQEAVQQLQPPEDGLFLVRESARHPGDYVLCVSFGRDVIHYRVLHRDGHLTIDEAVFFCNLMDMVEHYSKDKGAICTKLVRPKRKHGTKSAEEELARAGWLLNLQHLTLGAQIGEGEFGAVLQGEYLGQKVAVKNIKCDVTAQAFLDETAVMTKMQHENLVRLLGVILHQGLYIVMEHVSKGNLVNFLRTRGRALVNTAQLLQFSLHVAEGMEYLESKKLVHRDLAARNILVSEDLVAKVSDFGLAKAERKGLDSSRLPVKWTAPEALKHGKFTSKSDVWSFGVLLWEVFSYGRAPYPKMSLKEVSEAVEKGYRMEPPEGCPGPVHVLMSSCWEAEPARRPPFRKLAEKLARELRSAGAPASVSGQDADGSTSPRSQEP

[8] = molecular target: Receptor-type tyrosine-protein kinase FLT3 (Homo sapiens, UniProt P36888);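 also: FLT3 was tested as one member of a kinome-wide kinase panel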
[9] = molecular target: Serine/threonine-protein kinase pim-3 (Homo sapiens, UniProt Q86V86);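 also: value obtained as one member of a broad kinase panel profiling effort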
SRSF protein kinase 1 = SRSF protein kinase 1 (Homo sapiens, UniProt Q96SB4);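 also: measured as one member of a kinome-wide kinase profiling panel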
Sequence of SRSF protein kinase 1 (Q96SB4 whole entry): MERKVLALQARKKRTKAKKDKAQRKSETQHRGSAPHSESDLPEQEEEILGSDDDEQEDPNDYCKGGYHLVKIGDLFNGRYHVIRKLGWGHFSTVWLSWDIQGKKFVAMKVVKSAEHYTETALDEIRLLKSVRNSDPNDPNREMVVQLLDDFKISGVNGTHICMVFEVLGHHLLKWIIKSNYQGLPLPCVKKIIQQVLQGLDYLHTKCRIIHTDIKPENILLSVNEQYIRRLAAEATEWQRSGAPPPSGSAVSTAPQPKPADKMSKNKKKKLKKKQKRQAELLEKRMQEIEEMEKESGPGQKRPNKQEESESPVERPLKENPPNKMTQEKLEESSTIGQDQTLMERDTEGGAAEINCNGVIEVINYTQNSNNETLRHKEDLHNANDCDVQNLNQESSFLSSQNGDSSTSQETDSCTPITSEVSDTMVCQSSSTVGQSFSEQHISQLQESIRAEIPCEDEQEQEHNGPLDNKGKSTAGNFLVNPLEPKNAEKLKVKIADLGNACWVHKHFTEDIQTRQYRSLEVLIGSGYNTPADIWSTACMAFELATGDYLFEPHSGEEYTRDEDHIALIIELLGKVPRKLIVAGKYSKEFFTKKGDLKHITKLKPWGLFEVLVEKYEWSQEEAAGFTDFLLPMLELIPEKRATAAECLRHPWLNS

[10] = molecular target: Hepatocyte growth factor receptor (Homo sapiens, UniProt P08581);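 also: kinase panel profiling across the kinome, with MET as the panel member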
[11] = molecular target: Serine/threonine-protein kinase DCLK1 (Homo sapiens, UniProt O15075);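 also: affinity for DCLK1 (listed as DCAMKL1) measured as one member of a kinome-wide kinase profiling panel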
[12] = molecular target: Homeodomain-interacting protein kinase 4 (Homo sapiens, UniProt Q8NE63)
[13] = molecular target: Fibroblast growth factor receptor 3 (Homo sapiens, UniProt P22607)
[14] = molecular target: Casein kinase I isoform alpha (Homo sapiens, UniProt P48729)
[15] = molecular target: Casein kinase II subunit alpha (Homo sapiens, UniProt P68400)
[16] = molecular target: Ribosomal protein S6 kinase alpha-3 (Homo sapiens, UniProt P51812);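 also: measured within a kinome-wide profiling panel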
[17] = molecular target: Protein kinase C gamma type (Homo sapiens, UniProt P05129)
[18] = molecular target: Tyrosine-protein kinase Srms (Homo sapiens, UniProt Q9H3Y6);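 also: SRMS measured as one member of a kinome-wide kinase profiling panel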
[19] = molecular target: Tyrosine-protein kinase Blk (Homo sapiens, UniProt P51451);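 also: obtained as one member of a kinome-wide kinase assay panel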
[20] = molecular target: 3-phosphoinositide-dependent protein kinase 1 (Homo sapiens, UniProt O15530);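 also: value comes from the Navigating the Kinome panel, PDPK1 member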
[21] = molecular target: Dual specificity tyrosine-phosphorylation-regulated kinase 1B (Homo sapiens, UniProt Q9Y463); test: Navigating the Kinome. Panel member name: DYRK1B
[22] = molecular target: Serine/threonine-protein kinase TBK1 (Homo sapiens, UniProt Q9UHD2); test: Navigating the Kinome. Panel member name: TBK1
[23] = molecular target: Cyclin-dependent kinase 9 (Homo sapiens, UniProt P50750);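 also: value from the CDK9 entry of a kinome-spanning kinase panel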
Activin receptor type-1 = Activin receptor type-1 (Homo sapiens, UniProt Q04771); test: Navigating the Kinome. Panel member name: ACVR1
Focal adhesion kinase 1 = Focal adhesion kinase 1 (Homo sapiens, UniProt Q05397);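 also: measured as one member of a kinome panel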
Sequence of Focal adhesion kinase 1 (Q05397 whole entry): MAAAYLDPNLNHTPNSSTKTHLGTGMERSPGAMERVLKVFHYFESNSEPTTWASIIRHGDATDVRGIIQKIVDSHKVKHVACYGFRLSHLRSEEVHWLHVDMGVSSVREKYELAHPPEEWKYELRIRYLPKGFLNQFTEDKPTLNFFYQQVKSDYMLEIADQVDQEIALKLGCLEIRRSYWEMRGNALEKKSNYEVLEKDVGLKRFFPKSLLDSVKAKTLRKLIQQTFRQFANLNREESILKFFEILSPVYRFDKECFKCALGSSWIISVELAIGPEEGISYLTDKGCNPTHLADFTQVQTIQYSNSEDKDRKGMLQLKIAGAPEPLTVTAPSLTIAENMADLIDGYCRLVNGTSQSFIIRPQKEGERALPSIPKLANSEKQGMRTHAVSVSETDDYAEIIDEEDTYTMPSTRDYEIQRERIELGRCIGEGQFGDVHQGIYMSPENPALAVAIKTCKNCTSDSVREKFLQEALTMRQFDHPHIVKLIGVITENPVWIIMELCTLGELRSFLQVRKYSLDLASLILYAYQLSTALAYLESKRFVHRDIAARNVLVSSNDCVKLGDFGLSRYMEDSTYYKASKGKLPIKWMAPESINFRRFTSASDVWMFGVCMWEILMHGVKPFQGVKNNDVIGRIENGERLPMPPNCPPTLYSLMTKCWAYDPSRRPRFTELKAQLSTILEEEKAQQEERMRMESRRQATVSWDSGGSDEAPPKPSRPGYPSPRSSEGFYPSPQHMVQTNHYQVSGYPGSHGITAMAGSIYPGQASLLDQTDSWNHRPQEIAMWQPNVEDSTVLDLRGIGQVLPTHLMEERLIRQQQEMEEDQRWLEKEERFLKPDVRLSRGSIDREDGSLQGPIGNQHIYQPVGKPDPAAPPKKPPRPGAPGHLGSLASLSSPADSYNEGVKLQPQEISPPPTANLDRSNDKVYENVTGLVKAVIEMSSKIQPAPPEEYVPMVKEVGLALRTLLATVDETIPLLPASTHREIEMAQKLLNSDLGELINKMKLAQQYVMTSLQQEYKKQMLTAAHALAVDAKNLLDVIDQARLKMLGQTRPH

[24] = molecular target: Dual specificity mitogen-activated protein kinase kinase 2 (Homo sapiens, UniProt P36507); test: Navigating the Kinome. Panel member name: MAP2K2
[25] = molecular target: Rho-associated protein kinase 1 (Homo sapiens, UniProt Q13464);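 also: measured within a broad kinome-wide panel profiling many kinases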
[26] = molecular target: Leucine-rich repeat serine/threonine-protein kinase 2 (Homo sapiens, UniProt Q5S007);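 also: value from a broad kinome-wide panel profiling study in which LRRK2 was one of the kinases tested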
[27] = molecular target: Proto-oncogene tyrosine-protein kinase receptor Ret (Homo sapiens, UniProt P07949);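 also: measured within a kinome-wide profiling panel, RET as the panel member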
[28] = molecular target: Dual specificity protein kinase CLK4 (Homo sapiens, UniProt Q9HAZ1)

Sequence of Serine/threonine-protein kinase PAK 1 (Q13153 whole entry): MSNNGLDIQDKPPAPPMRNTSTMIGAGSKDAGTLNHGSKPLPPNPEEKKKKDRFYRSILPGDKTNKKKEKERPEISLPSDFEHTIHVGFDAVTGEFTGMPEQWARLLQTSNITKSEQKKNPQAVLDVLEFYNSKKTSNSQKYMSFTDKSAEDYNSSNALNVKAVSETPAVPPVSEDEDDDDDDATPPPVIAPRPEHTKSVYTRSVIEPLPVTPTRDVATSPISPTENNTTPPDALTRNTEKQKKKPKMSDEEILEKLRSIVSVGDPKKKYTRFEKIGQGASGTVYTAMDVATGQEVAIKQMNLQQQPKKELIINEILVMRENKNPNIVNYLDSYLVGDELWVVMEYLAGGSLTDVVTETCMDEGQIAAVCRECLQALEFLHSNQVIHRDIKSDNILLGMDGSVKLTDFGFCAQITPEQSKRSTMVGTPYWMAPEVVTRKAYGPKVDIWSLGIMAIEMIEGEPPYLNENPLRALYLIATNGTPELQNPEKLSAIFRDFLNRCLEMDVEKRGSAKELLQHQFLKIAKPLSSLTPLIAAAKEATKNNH

Compound	Ki [1]	Ki [2]	Ki [3]	Ki [4]	Ki [5]	Ki [6]	Ki [7]	Ki [8]	Ki [9]	Ki (SRSF protein kinase 1)	Ki [10]	Ki [11]	Ki [12]	Ki [13]	Ki [14]	Ki [15]	Ki [16]	Ki [17]	Ki [18]	Ki [19]	other results
NC1CCC(Nc2nccc(-c3c[nH]c4ncccc34)n2)CC1 (configuration not stated)	7.94 µM (active)	> 3.98 µM (inactive)	0.398 µM (active)	1.58 µM (active)	0.0158 µM (active)	> 2 µM (inactive)	> 2 µM (inactive)	0.0631 µM (active)	0.2 µM (active)	1 µM (active)	> 3.16 µM (inactive)	1 µM (active)	2.51 µM (active)	> 2 µM (inactive)	0.0501 µM (active)	2.51 µM (active)	0.00501 µM (active)	0.158 µM (active)	> 1.58 µM (inactive)	> 1.58 µM (inactive)	Ki [20]: 1.26 µM (active)
COC(C(=O)N1Cc2[nH]nc(NC(=O)c3ccc(N4CCN(C)CC4)cc3)c2C1)c1ccccc1 (configuration not stated)	> 10 µM (inactive)	> 3.98 µM (inactive)	–	> 7.94 µM (inactive)	> 3.16 µM (inactive)	0.00794 µM (active)	> 2 µM (inactive)	–	> 7.94 µM (inactive)	> 7.94 µM (inactive)	–	0.0398 µM (active)	> 7.94 µM (inactive)	0.0316 µM (active)	–	> 6.31 µM (inactive)	–	> 7.94 µM (inactive)	0.0501 µM (active)	0.0398 µM (active)	Ki [20]: > 3.98 µM (inactive)
CC(C)(O)c1cn(-c2ccc3[nH]ncc3c2)nn1	–	–	–	–	–	–	–	50.1 µM (active)	–	–	–	–	–	–	10 µM (active)	–	39.8 µM (active)	–	–	–	Ki [21]: 2 µM (active); Ki [22]: 79.4 µM (active); Ki [23]: 10 µM (active); Ki (Activin receptor type-1): 79.4 µM (active); Ki (Focal adhesion kinase 1): 50.1 µM (active); Ki [24]: 25.1 µM (active); Ki [25]: 0.794 µM (active); Ki [26]: 12.6 µM (active); Ki [27]: 25.1 µM (active); Ki [28]: 0.0794 µM (active)
OCc1cc(-c2ccc3[nH]ncc3c2)on1	–	–	100 µM (active)	–	–	–	–	–	–	–	31.6 µM (active)	–	–	–	–	–	–	–	–	–	Ki [21]: 0.1 µM (active); Ki [22]: 50.1 µM (active); Ki [23]: 5.01 µM (active); Ki (Activin receptor type-1): 20 µM (active); Ki (Focal adhesion kinase 1): 63.1 µM (active); Ki [24]: 15.8 µM (active); Ki [25]: 0.398 µM (active); Ki [26]: 3.98 µM (active); Ki [27]: 50.1 µM (active); Ki [28]: 0.0316 µM (active)

Reference: ChEMBL document CHEMBL1201862, “PubChem BioAssay data set” (2004)
